How the values were obtained:
[1] = target: T1, Multidrug resistance-associated protein 1 (Homo sapiens, UniProt P33527); assay: TP_TRANSPORTER: intracellular accumulation in KB-3-1 and C-A120 cells; type: functional, cell-based, KB-3-1; C-A120
[2] = target: T1, Multidrug resistance-associated protein 1; assay: TP_TRANSPORTER: increase in Vincristine intracellular accumulation (Vincristine: 1 uM, PAK-104P: 10 uM) in KB-3-1 and C-A120 cell; type: functional, cell-based; conditions: kb-3-1;c-a120, 10 µM

T1 sequence (P33527 whole entry): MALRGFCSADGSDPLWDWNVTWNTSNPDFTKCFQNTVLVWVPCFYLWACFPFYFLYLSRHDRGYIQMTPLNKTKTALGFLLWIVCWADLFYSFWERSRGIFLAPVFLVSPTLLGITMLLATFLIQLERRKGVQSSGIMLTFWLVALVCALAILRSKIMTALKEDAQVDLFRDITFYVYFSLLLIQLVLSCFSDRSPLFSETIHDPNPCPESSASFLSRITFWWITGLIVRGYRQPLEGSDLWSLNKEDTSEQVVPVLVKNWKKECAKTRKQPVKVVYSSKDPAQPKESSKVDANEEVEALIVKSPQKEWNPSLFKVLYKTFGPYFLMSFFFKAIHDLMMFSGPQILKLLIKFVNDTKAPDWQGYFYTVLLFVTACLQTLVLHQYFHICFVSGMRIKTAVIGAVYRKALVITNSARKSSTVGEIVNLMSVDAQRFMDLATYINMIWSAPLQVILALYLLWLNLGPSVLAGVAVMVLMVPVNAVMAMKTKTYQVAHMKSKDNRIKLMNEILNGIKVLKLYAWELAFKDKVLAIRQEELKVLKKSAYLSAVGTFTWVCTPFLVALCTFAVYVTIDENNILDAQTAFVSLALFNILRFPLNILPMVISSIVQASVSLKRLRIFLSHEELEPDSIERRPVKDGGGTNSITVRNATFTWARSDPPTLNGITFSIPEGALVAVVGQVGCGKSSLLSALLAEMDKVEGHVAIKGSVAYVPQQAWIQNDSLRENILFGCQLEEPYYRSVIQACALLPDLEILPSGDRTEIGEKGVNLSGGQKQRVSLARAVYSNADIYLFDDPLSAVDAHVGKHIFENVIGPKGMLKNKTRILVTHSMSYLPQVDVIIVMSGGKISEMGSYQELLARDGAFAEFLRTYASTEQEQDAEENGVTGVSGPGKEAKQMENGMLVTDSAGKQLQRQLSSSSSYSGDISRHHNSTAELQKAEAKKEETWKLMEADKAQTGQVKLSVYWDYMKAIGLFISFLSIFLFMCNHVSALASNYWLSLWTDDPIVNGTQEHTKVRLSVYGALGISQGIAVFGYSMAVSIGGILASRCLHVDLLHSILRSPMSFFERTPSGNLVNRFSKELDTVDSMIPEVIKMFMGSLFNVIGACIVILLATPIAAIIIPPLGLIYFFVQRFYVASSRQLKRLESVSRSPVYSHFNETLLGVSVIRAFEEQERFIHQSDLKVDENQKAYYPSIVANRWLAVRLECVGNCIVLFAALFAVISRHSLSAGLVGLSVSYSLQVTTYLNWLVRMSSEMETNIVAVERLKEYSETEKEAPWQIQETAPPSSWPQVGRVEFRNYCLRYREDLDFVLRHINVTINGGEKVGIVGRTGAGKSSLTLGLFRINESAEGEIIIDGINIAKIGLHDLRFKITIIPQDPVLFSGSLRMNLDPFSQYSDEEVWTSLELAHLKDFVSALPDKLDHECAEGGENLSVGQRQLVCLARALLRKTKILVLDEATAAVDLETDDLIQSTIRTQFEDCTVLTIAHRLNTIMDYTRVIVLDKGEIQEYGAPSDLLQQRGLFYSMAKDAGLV

Row | Activity [1] | Activity [2] | Compound
1 | substrate [+] |  | CC[C@]1(O)C[C@H]2CN(CCc3c([nH]c4ccccc34)[C@@](C(=O)OC)(c3cc4c(cc3OC)N(C=O)[C@H]3[C@@](O)(C(=O)OC)[C@H](OC(C)=O)[C@]5(CC)C=CCN6CC[C@]43[C@@H]65)C2)C1 [VINCRISTINE]
2 |  | inhibitor [1.3 to 1.7-fold] | Cc1nc(C)c(P2(=O)O[C@H](C)C[C@@H](C)O2)c(-c2cccc([N+](=O)[O-])c2)c1C(=O)OCCN1CCN(C(c2ccccc2)c2ccccc2)CC1 (some centres not stated)

Reference: ChEMBL document CHEMBL2074493, “Reversal of multidrug resistance-associated protein-mediated drug resistance by the pyridine analog PAK-104P” (Mol Pharmacol, 1997)
